Data as given in patent US20110105623A1 (Biogenic Innovations, LLC, priority 2009, published 2011).

Columns and labels:
Format in all cases: cell-based
Pseudomonas aeruginosa = assay: USP <51> AET in cosmetic cream/composition; settings: for AET microorganism count: 48 hrs-28 days; for Log Reduction from Initial Microorganism Inoculum: 14, 28 Days
[1] = test system: Escherichia coli (ATCC strain 8739); assay: Growth profile in sterile/non-sterile MSM media, streaked on MacConkey agar; settings: 5-16% MSM
Protocol: Tubes were incubated at 25° C.

Staphylococcus aureus = assay: USP AET, MSM in TSB; parameters: key to AET microorganism count: Colonies too numerous to count (TNTC); settings: for Log Reduction from Initial Microorganism Inoculum: 1:10 dilution of MSM, 14, 28 Days; for AET microorganism count: 48 hrs
Description: (§1) Compounds or formulated products having antimicrobial activity may be evaluated with the United States Pharmacopeia (USP) Antimicrobial Effectiveness Test (AET). The AET involves the addition of specified microorganisms (Candida albicans, Aspergillus niger, Escherichia coli, Pseudomonas aeruginosa and Staphylococcus aureus) directly to a test product at relatively high concentrations to simulate contamination. The product is held for one month, with weekly analysis of microorganism levels. Depending on the route of administration of a product, satisfaction of the AET generally requires a 1 to 3 log reduction in bacteria from initial levels, which should occur in one to two weeks, with no further increase in bacteria after two weeks. For yeast and mold, no increase from the initial inoculums level is permitted.
(§2) Inoculations were made using Candida albicans, Aspergillus niger, Escherichia coli, Pseudomonas aeruginosa and Staphylococcus aureus. Tryptic soy broth (TSB) was used as the culturing media. […] The inoculated media was held for one month, during which time the added microorganisms were enumerated weekly to determine if they were growing, dying off, or remaining near the initial inoculation level. Data points were measured in triplicate at 48 hours, 3, 5, 14, 20, 28, and 30 days. The acceptance criteria for antimicrobial effectiveness are described in detail in the USP, herein incorporated by reference.

Candida albicans = assay: USP AET, MSM in TSB; parameters: key to AET microorganism count: Colonies too numerous to count (TNTC); settings: for Log Reduction from Initial Microorganism Inoculum: 1:10 dilution of MSM, 14, 28 Days; for AET microorganism count: 48 hrs
Description: as §1, §2

Methylsulfonylmethane [MSM]
AET microorganism count (Pseudomonas aeruginosa; 10% MSM in Preservative Free Cosmetic Composition #1, 48 hours after inoculation): 7.3 × 10^3
AET microorganism count (Pseudomonas aeruginosa; 10% MSM in Preservative Free Cosmetic Composition #1, 7 days after inoculation): <10
AET microorganism count (Pseudomonas aeruginosa; 10% MSM in cosmetic cream without preservative): <10
Log Reduction from Initial Microorganism Inoculum (Pseudomonas aeruginosa; 10% MSM in preservative-free jojoba cream): 5.3 log
Log Reduction from Initial Microorganism Inoculum (Pseudomonas aeruginosa; 10% MSM, Composition #1): 5.8 log
Log Reduction from Initial Microorganism Inoculum (Pseudomonas aeruginosa; 10% MSM, Composition #2): 5.8 log
Growth profile of E. coli ([1]; 24 hours, NS (sterile saline + non-sterile MSM), 8% MSM): Heavy
Growth profile of E. coli ([1]; 24 hours, NS (sterile saline + non-sterile MSM), 12% MSM): Moderate
Growth profile of E. coli ([1]; 24 hours, NSA (saline + MSM, then sterilized), 8% MSM): Heavy
Growth profile of E. coli ([1]; 24 hours, NSA (saline + MSM, then sterilized), 12% MSM): Moderate
Growth profile of E. coli ([1]; 24 hours, TSB (sterile TSB + non-sterile MSM), 8% MSM): Heavy
Growth profile of E. coli ([1]; 24 hours, TSB (sterile TSB + non-sterile MSM), 10% MSM): Moderate
Growth profile of E. coli ([1]; 24 hours, TSB (sterile TSB + non-sterile MSM), 11% MSM): Few
Growth profile of E. coli ([1]; 24 hours, TSBA (TSB + MSM, then sterilized), 8% MSM): Heavy
Growth profile of E. coli ([1]; 24 hours, TSBA (TSB + MSM, then sterilized), 10% MSM): Moderate
Growth profile of E. coli ([1]; 24 hours, TSBA (TSB + MSM, then sterilized), 11% MSM): Few
Growth profile of E. coli ([1]; 48 hours, NS, 8% MSM): Heavy
Growth profile of E. coli ([1]; 48 hours, NS, 12% MSM): Moderate
Growth profile of E. coli ([1]; 48 hours, NSA, 8% MSM): Heavy
Growth profile of E. coli ([1]; 48 hours, NSA, 12% MSM): Moderate
Growth profile of E. coli ([1]; 48 hours, TSB, 8% MSM): Heavy
Growth profile of E. coli ([1]; 48 hours, TSB, 11% MSM): Moderate
Growth profile of E. coli ([1]; 48 hours, TSB, 12% MSM): Few
Growth profile of E. coli ([1]; 48 hours, TSBA, 8% MSM): Heavy
Growth profile of E. coli ([1]; 48 hours, TSBA, 11% MSM): Moderate
Growth profile of E. coli ([1]; 48 hours, TSBA, 12% MSM): Few
Growth profile of E. coli ([1]; 72 hours, NS, 8% MSM): Heavy
Growth profile of E. coli ([1]; 72 hours, NS, 12% MSM): Moderate
Growth profile of E. coli ([1]; 72 hours, NSA, 8% MSM): Heavy
Growth profile of E. coli ([1]; 72 hours, NSA, 12% MSM): Moderate
Growth profile of E. coli ([1]; 72 hours, TSB, 8% MSM): Heavy
Growth profile of E. coli ([1]; 72 hours, TSB, 11% MSM): Moderate
Growth profile of E. coli ([1]; 72 hours, TSB, 12% MSM): Few
Growth profile of E. coli ([1]; 72 hours, TSBA, 8% MSM): Heavy
Growth profile of E. coli ([1]; 72 hours, TSBA, 11% MSM): Moderate
Growth profile of E. coli ([1]; 72 hours, TSBA, 12% MSM): Few
Log Reduction from Initial Microorganism Inoculum (Staphylococcus aureus; 14 days after inoculation): 4.5 log
Log Reduction from Initial Microorganism Inoculum (Staphylococcus aureus; 28 days after inoculation): 4.7 log
AET microorganism count (Staphylococcus aureus; 1:100 dilution of MSM): TNTC
AET microorganism count (Staphylococcus aureus; 1:1000 dilution of MSM): TNTC
Log Reduction from Initial Microorganism Inoculum (Candida albicans; 14 days after inoculation): 4.2 log
Log Reduction from Initial Microorganism Inoculum (Candida albicans; 28 days after inoculation): 4.4 log
AET microorganism count (Candida albicans; 1:100 dilution of MSM): TNTC
AET microorganism count (Candida albicans; 1:1000 dilution of MSM): TNTC
